Legend:
Conditions in all cases: route intragastric
[1] = tested on: Mus musculus; experiment: Antimutagenic activity against cyclophosphamide-induced mutagenicity in Albino mouse testes assessed as RNA level per gram of tissue at 14.16 mg/kg administered intragastrically for 1 week; format: functional, Testis
[2] = tested on: Mus musculus; experiment: Inhibition of cyclophosphamide-induced increase in micronuclei/polychromatic erythrocytes count in mouse at 18.38 mg/kg administered intragastrically for 1 week by micronuclei assay; format: functional; set-up: scale not given: the % may be the effect or the level left
[3] = tested on: Mus musculus; experiment: Antimutagenic activity in Albino mouse liver assessed as RNA level per gram of tissue at 14.16 mg/kg administered intragastrically for 1 week; format: functional
[4] = tested on: Mus musculus; experiment: Antimutagenic activity against cyclophosphamide-induced mutagenicity in mouse kidney assessed as protein level per gram of tissue at 14.16 mg/kg administered intragastrically for 1 week; format: functional
[5] = tested on: Mus musculus; experiment: Antimutagenic activity in Albino mouse kidney assessed as DNA level per gram of tissue at 14.16 mg/kg administered intragastrically for 1 week; format: functional
[6] = tested on: Mus musculus; experiment: Antimutagenic activity against cyclophosphamide-induced mutagenicity in mouse brain assessed as peroxidase activity per microgram of tissue at 14.16 mg/kg administered intragastrically for 1 week; format: functional
[7] = tested on: Mus musculus; experiment: Antimutagenic activity in mouse brain assessed as protein level per gram of tissue at 14.16 mg/kg administered intragastrically for 1 week; format: functional
[8] = tested on: Mus musculus; experiment: Antimutagenic activity in Albino mouse liver assessed as DNA level per gram of tissue at 14.16 mg/kg administered intragastrically for 1 week; format: functional
[9] = tested on: Mus musculus; experiment: Antimutagenic activity in Albino mouse kidney assessed as RNA level per gram of tissue at 14.16 mg/kg administered intragastrically for 1 week; format: functional
[10] = tested on: Mus musculus; experiment: Antimutagenic activity against cyclophosphamide-induced mutagenicity in mouse brain assessed as cholinesterase activity per microgram of tissue at 14.16 mg/kg administered intragastrically for 1 week; format: functional
[11] = tested on: Mus musculus; experiment: Antimutagenic activity in Albino mouse testes assessed as RNA level per gram of tissue at 14.16 mg/kg administered intragastrically for 1 week; format: functional, Testis
[12] = tested on: Mus musculus; experiment: Antimutagenic activity against cyclophosphamide-induced mutagenicity in Albino mouse kidney assessed as RNA level per gram of tissue at 14.16 mg/kg administered intragastrically for 1 week; format: functional
[13] = tested on: Mus musculus; experiment: Antimutagenic activity in Albino mouse brain assessed as RNA level per gram of tissue at 14.16 mg/kg administered intragastrically for 1 week; format: functional
[14] = tested on: Mus musculus; experiment: Antimutagenic activity in mouse liver assessed as protein level per gram of tissue at 14.16 mg/kg administered intragastrically for 1 week; format: functional
[15] = tested on: Mus musculus; experiment: Antimutagenic activity against cyclophosphamide-induced mutagenicity in mouse brain assessed as protein level per gram of tissue at 14.16 mg/kg administered intragastrically for 1 week; format: functional
[16] = tested on: Mus musculus; experiment: Antimutagenic activity in Albino mouse testes assessed as DNA level per gram of tissue at 14.16 mg/kg administered intragastrically for 1 week; format: functional, Testis
[17] = tested on: Mus musculus; experiment: Antimutagenic activity in mouse kidney assessed as protein level per gram of tissue at 14.16 mg/kg administered intragastrically for 1 week; format: functional
[18] = tested on: Mus musculus; experiment: Antimutagenic activity against cyclophosphamide-induced mutagenicity in Albino mouse liver assessed as DNA level per gram of tissue at 14.16 mg/kg administered intragastrically for 1 week; format: functional
[19] = tested on: Mus musculus; experiment: Antimutagenic activity against cyclophosphamide-induced mutagenicity in Albino mouse brain assessed as RNA level per gram of tissue at 14.16 mg/kg administered intragastrically for 1 week; format: functional
[20] = tested on: Mus musculus; experiment: Antimutagenic activity against cyclophosphamide-induced mutagenicity in Albino mouse kidney assessed as DNA level per gram of tissue at 14.16 mg/kg administered intragastrically for 1 week; format: functional
[21] = tested on: Mus musculus; experiment: Antimutagenic activity against cyclophosphamide-induced mutagenicity in mouse testes assessed as protein level per gram of tissue at 14.16 mg/kg administered intragastrically for 1 week; format: functional, Testis
[22] = tested on: Mus musculus; experiment: Antimutagenic activity against cyclophosphamide-induced mutagenicity in Albino mouse testes assessed as DNA level per gram of tissue at 14.16 mg/kg administered intragastrically for 1 week; format: functional, Testis
[23] = tested on: Mus musculus; experiment: Antimutagenic activity in mouse brain assessed as cholinesterase activity per microgram of tissue at 14.16 mg/kg administered intragastrically for 1 week; format: functional
[24] = tested on: Mus musculus; experiment: Antimutagenic activity against cyclophosphamide-induced mutagenicity in Albino mouse liver assessed as RNA level per gram of tissue at 14.16 mg/kg administered intragastrically for 1 week; format: functional
[25] = tested on: Mus musculus; experiment: Antimutagenic activity in mouse brain assessed as peroxidase activity per microgram of tissue at 14.16 mg/kg administered intragastrically for 1 week; format: functional
[26] = tested on: Mus musculus; experiment: Antimutagenic activity in Albino mouse brain assessed as DNA level per gram of tissue at 14.16 mg/kg administered intragastrically for 1 week; format: functional
[27] = tested on: Mus musculus; experiment: Antimutagenic activity against cyclophosphamide-induced mutagenicity in Albino mouse brain assessed as DNA level per gram of tissue at 14.16 mg/kg administered intragastrically for 1 week; format: functional
[28] = tested on: Mus musculus; experiment: Antimutagenic activity against cyclophosphamide-induced mutagenicity in Albino mouse kidney assessed as RNA level per gram of tissue at 10 mg/kg administered intragastrically for 1 week; format: functional
[29] = tested on: Mus musculus; experiment: Antimutagenic activity in mouse liver assessed as protein level per gram of tissue at 10 mg/kg administered intragastrically for 1 week; format: functional
[30] = tested on: Mus musculus; experiment: Antimutagenic activity in Albino mouse kidney assessed as RNA level per gram of tissue at 10 mg/kg administered intragastrically for 1 week; format: functional
[31] = tested on: Mus musculus; experiment: Antimutagenic activity in Albino mouse liver assessed as DNA level per gram of tissue at 10 mg/kg administered intragastrically for 1 week; format: functional
[32] = tested on: Mus musculus; experiment: Antimutagenic activity in mouse brain assessed as protein level per gram of tissue at 10 mg/kg administered intragastrically for 1 week; format: functional
[33] = tested on: Mus musculus; experiment: Antimutagenic activity in Albino mouse liver assessed as RNA level per gram of tissue at 10 mg/kg administered intragastrically for 1 week; format: functional
[34] = tested on: Mus musculus; experiment: Antimutagenic activity against cyclophosphamide-induced mutagenicity in mouse testes assessed as protein level per gram of tissue at 10 mg/kg administered intragastrically for 1 week; format: functional, Testis
[35] = tested on: Mus musculus; experiment: Antimutagenic activity in Albino mouse testes assessed as RNA level per gram of tissue at 10 mg/kg administered intragastrically for 1 week; format: functional, Testis
[36] = tested on: Mus musculus; experiment: Antimutagenic activity in Albino mouse testes assessed as DNA level per gram of tissue at 10 mg/kg administered intragastrically for 1 week; format: functional, Testis
[37] = tested on: Mus musculus; experiment: Antimutagenic activity in Albino mouse kidney assessed as DNA level per gram of tissue at 10 mg/kg administered intragastrically for 1 week; format: functional
[38] = tested on: Mus musculus; experiment: Antimutagenic activity in mouse kidney assessed as protein level per gram of tissue at 10 mg/kg administered intragastrically for 1 week; format: functional
[39] = tested on: Mus musculus; experiment: Antimutagenic activity against cyclophosphamide-induced mutagenicity in Albino mouse liver assessed as RNA level per gram of tissue at 10 mg/kg administered intragastrically for 1 week; format: functional
[40] = tested on: Mus musculus; experiment: Antimutagenic activity against cyclophosphamide-induced mutagenicity in mouse liver assessed as protein level per gram of tissue at 10 mg/kg administered intragastrically for 1 week; format: functional
[41] = tested on: Mus musculus; experiment: Antimutagenic activity in mouse brain assessed as cholinesterase activity per microgram of tissue at 10 mg/kg administered intragastrically for 1 week; format: functional
[42] = tested on: Mus musculus; experiment: Antimutagenic activity in Albino mouse brain assessed as DNA level per gram of tissue at 10 mg/kg administered intragastrically for 1 week; format: functional
[43] = tested on: Mus musculus; experiment: Antimutagenic against cyclophosphamide-induced mutagenicity in Albino mouse liver assessed as DNA level per gram of tissue at 10 mg/kg administered intragastrically for 1 week; format: functional
[44] = tested on: Mus musculus; experiment: Antimutagenic activity against cyclophosphamide-induced mutagenicity in mouse brain assessed as peroxidase activity per microgram of tissue at 10 mg/kg administered intragastrically for 1 week; format: functional
[45] = tested on: Mus musculus; experiment: Inhibition of cyclophosphamide-induced increase in micronuclei/polychromatic erythrocytes count in mouse at 10 mg/kg administered intragastrically for 1 week by micronuclei assay; format: functional; set-up: scale not given: the % may be the effect or the level left
[46] = tested on: Mus musculus; experiment: Antimutagenic activity against cyclophosphamide-induced mutagenicity in Albino mouse testes assessed as RNA level per gram of tissue at 10 mg/kg administered intragastrically for 1 week; format: functional, Testis
[47] = tested on: Mus musculus; experiment: Antimutagenic activity against cyclophosphamide-induced mutagenicity in Albino mouse kidney assessed as DNA level per gram of tissue at 10 mg/kg administered intragastrically for 1 week; format: functional
[48] = tested on: Mus musculus; experiment: Antimutagenic activity against cyclophosphamide-induced mutagenicity in Albino mouse brain assessed as RNA level per gram of tissue at 10 mg/kg administered intragastrically for 1 week; format: functional
[49] = tested on: Mus musculus; experiment: Antimutagenic activity against cyclophosphamide-induced mutagenicity in mouse brain assessed as protein level per gram of tissue at 10 mg/kg administered intragastrically for 1 week; format: functional
[50] = tested on: Mus musculus; experiment: Antimutagenic activity against cyclophosphamide-induced mutagenicity in Albino mouse testes assessed as DNA level per gram of tissue at 10 mg/kg administered intragastrically for 1 week; format: functional, Testis
[51] = tested on: Mus musculus; experiment: Antimutagenic activity against cyclophosphamide-induced mutagenicity in mouse kidney assessed as protein level per gram of tissue at 10 mg/kg administered intragastrically for 1 week; format: functional
[52] = tested on: Mus musculus; experiment: Antimutagenic activity in Albino mouse brain assessed as RNA level per gram of tissue at 10 mg/kg administered intragastrically for 1 week; format: functional
[53] = tested on: Mus musculus; experiment: Antimutagenic activity against cyclophosphamide-induced mutagenicity in Albino mouse brain assessed as DNA level per gram of tissue at 10 mg/kg administered intragastrically for 1 week; format: functional
[54] = tested on: Mus musculus; experiment: Antimutagenic activity against cyclophosphamide-induced mutagenicity in mouse brain assessed as cholinesterase activity per microgram of tissue at 10 mg/kg administered intragastrically for 1 week; format: functional
[55] = tested on: Mus musculus; experiment: Antimutagenic activity in mouse brain assessed as peroxidase activity per microgram of tissue at 10 mg/kg administered intragastrically for 1 week; format: functional

COc1ccc2c(c1)c(CCNC(C)=O)c1sc(CC#N)nn12
Activity [1]: 0.19 mg | Activity [2]: 28% | Activity [3]: 0.3 mg | Activity [4]: 4.94 g | Activity [5]: 0.28 mg | Activity [6]: 1.24 U/min | Activity [7]: 2.98 g | Activity [8]: 0.27 mg | Activity [9]: 0.23 mg | Activity [10]: 2.73 U | Activity [11]: 0.21 mg | Activity [12]: 0.22 mg | Activity [13]: 0.19 mg | Activity [14]: 9.95 g | Activity [15]: 2.71 g | Activity [16]: 0.32 mg | Activity [17]: 7.87 g | Activity [18]: 0.25 mg | Activity [19]: 0.16 mg | Activity [20]: 0.35 mg | Activity [21]: 3.49 g | Activity [22]: 0.28 mg | Activity [23]: 3.3 U | Activity [24]: 0.34 mg | Activity [25]: 1.06 U/min | Activity [26]: 0.33 mg | Activity [27]: 0.21 mg

COc1ccc2[nH]cc(CCNC(C)=O)c2c1 [MELATONIN]
Activity [28]: 0.19 mg | Activity [29]: 8.42 g | Activity [30]: 0.38 mg | Activity [31]: 0.26 mg | Activity [32]: 2.48 g | Activity [33]: 0.44 mg | Activity [34]: 2.96 g | Activity [35]: 0.34 mg | Activity [36]: 0.26 mg | Activity [37]: 0.25 mg | Activity [38]: 6.39 g | Activity [39]: 0.28 mg | Activity [40]: 8.42 g | Activity [41]: 3.13 U | Activity [42]: 0.32 mg | Activity [43]: 0.23 mg | Activity [44]: 2.54 U/min | Activity [45]: 41% | Activity [46]: 0.17 mg | Activity [47]: 0.24 mg | Activity [48]: 0.15 mg | Activity [49]: 2.37 g | Activity [50]: 0.23 mg | Activity [51]: 4.42 g | Activity [52]: 0.18 mg | Activity [53]: 0.21 mg | Activity [54]: 2.63 U | Activity [55]: 3.38 U/min
